Test systems include HT29 colon; SW-620 colon; HCT-15 colon; NCI-H522 lung; MOLT-4 leukemia; LOX IMVI melanoma; HS 578T breast; T-47D breast; PC-3 prostate; MDA-MB-231 breast.
Holding throughout (assay): NCI tumour cell line growth inhibition, 48 h

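Cultured in 96-well plates, cells were exposed to test compound for 48 hours across five concentrations. The concentration for 50% growth inhibition is given as GI50. At the TGI there is no net growth.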

Take `Cn1c(N)nc(=O)c2c1N(C1OC(CO)C(O)C1O)CN2Cc1ccccc1` (stereo unspecified): the TGI in the assay on HT29 colon, with SW-620 colon, in the assay on HCT-15 colon, with NCI-H522 lung and in the assay with MOLT-4 leukemia was > 100 µM throughout.
`COc1ccc2c3c(c(C(=O)c4ccccc4)oc13)CCC2`: the TGI in the assay with HT29 colon, in the assay on SW-620 colon, in the assay with HCT-15 colon, with MOLT-4 leukemia and in the assay on LOX IMVI melanoma was > 100 µM in each case.
For `CCCN(CCC)c1ccc(/C=N/NC(=O)c2cccnc2)c(OC)c1`, the GI50 was 15.8 µM with HT29 colon; 24.5 µM in the assay on SW-620 colon; 27.5 µM in the assay with HCT-15 colon; 21.7 µM in the assay on HS 578T breast; 20.3 µM with NCI-H522 lung; 17.3 µM in the assay on T-47D breast. In addition, the GI50 in the assay on MOLT-4 leukemia was 22.8 µM; in the assay with LOX IMVI melanoma it was 23.6 µM; with PC-3 prostate, 25.2 µM. For the same compound, the TGI with HT29 colon was 55 µM; with SW-620 colon, > 100 µM; in the assay with HCT-15 colon, > 100 µM; with HS 578T breast it was 99.3 µM; in the assay with NCI-H522 lung, 56.9 µM; in the assay with T-47D breast, 50.8 µM. The TGI in the assay with MOLT-4 leukemia was 51.7 µM; with LOX IMVI melanoma it was > 100 µM; in the assay on PC-3 prostate it was > 100 µM.
In the case of `Fc1cccc(-n2ccc(-c3ccccc3)nc2=S)c1`, the GI50 is 57.3 µM with HT29 colon; 27.9 µM with MDA-MB-231 breast; > 100 µM in the assay on SW-620 colon; 17.3 µM with HCT-15 colon; 17.7 µM in the assay with HS 578T breast; 22.7 µM with NCI-H522 lung. Also, the GI50 is 54 µM in the assay on MOLT-4 leukemia, 16.1 µM in the assay with LOX IMVI melanoma and 17.5 µM with PC-3 prostate. Also, the TGI was > 100 µM in the assay with HT29 colon; > 100 µM in the assay with MDA-MB-231 breast; > 100 µM with SW-620 colon; 36.1 µM in the assay on HCT-15 colon; 37.4 µM in the assay on HS 578T breast; 64.5 µM in the assay on NCI-H522 lung. Besides, the results for the TGI in the assay on MOLT-4 leukemia, in the assay with LOX IMVI melanoma and in the assay with PC-3 prostate were > 100 µM, 29.5 µM and 39.4 µM, respectively.
`CC1=C(/C=C/C(C)=C/C=C/C(C)=C/C(=O)O)C(C)(C)CCC1`: the TGI was 68.3 µM with HT29 colon; 99.6 µM in the assay on MDA-MB-231 breast; 64.2 µM in the assay with SW-620 colon; 70.3 µM with HCT-15 colon; > 81 µM in the assay on HS 578T breast; > 83.7 µM in the assay with NCI-H522 lung. For the same compound, the results for the TGI in the assay with MOLT-4 leukemia, in the assay on LOX IMVI melanoma and with PC-3 prostate were 69.1 µM, 52.6 µM and > 100 µM, respectively.
In the case of `COc1ccc2oc(C(=O)O)c3c2c1CCC3CCC(=O)O` (stereo unspecified), the TGI in the assay with HT29 colon, with SW-620 colon, in the assay on NCI-H522 lung, in the assay on MOLT-4 leukemia and in the assay on LOX IMVI melanoma was > 100 µM in each case.
Take `O=C(O/N=C1/CCC/C1=C\c1ccccc1)c1ccc(Cl)c(Cl)c1`: the TGI in the assay with HT29 colon, in the assay with SW-620 colon, with HCT-15 colon, with NCI-H522 lung, with MOLT-4 leukemia and in the assay with LOX IMVI melanoma was > 100 µM each time.
`N#Cc1cc(S(=O)(=O)Nc2nnc(-c3ccccc3)c(-c3ccccc3)n2)c(SCc2ccccc2)cc1Cl`: the GI50 in the assay on MDA-MB-231 breast was 23.3 µM; in the assay on SW-620 colon, 35.5 µM; with HCT-15 colon, 17.4 µM; in the assay with HS 578T breast, 22.4 µM; with NCI-H522 lung, 44.5 µM; with MOLT-4 leukemia it was 9.82 µM. In addition, the figures for the GI50 in the assay with LOX IMVI melanoma and in the assay with PC-3 prostate were 16.8 µM and 20 µM, respectively. Further, the TGI was 83.8 µM in the assay on MDA-MB-231 breast; > 100 µM with SW-620 colon; 33.3 µM in the assay on HCT-15 colon; 63.3 µM with HS 578T breast; > 100 µM in the assay on NCI-H522 lung; > 100 µM with MOLT-4 leukemia. Further, the TGI in the assay with LOX IMVI melanoma turned out to be 32.8 µM; in the assay with PC-3 prostate, 43.2 µM.
Consider `CC(=O)O[C@H](C[C@H](C(C)C)N(C)C(=O)[C@@H](NC(=O)[C@H]1CCCN1C)C(C)C)c1nc(C(=O)N[C@@H](Cc2ccccc2)C[C@H](C)C(=O)O)c(C)s1`, for which the GI50 was < 0.00167 µM with HT29 colon; 0.00292 µM in the assay with MDA-MB-231 breast; < 0.00167 µM in the assay on SW-620 colon; 0.00772 µM in the assay with HCT-15 colon; < 0.00167 µM with HS 578T breast; < 0.00167 µM in the assay on NCI-H522 lung. Further, the GI50 in the assay with MOLT-4 leukemia, with LOX IMVI melanoma and in the assay with PC-3 prostate was < 0.00167 µM each time. Further, the TGI in the assay on HT29 colon is > 16.7 µM; with MDA-MB-231 breast, > 16.7 µM; in the assay with SW-620 colon, > 16.7 µM; with HCT-15 colon, > 16.7 µM; in the assay with HS 578T breast it was > 16.7 µM; in the assay on NCI-H522 lung, < 0.00167 µM. Also, the TGI with MOLT-4 leukemia, in the assay with LOX IMVI melanoma and in the assay with PC-3 prostate was > 16.7 µM each time.
As for `CSc1snc2sc3c(Cl)nnnc3c12`, the TGI in the assay on HT29 colon was found to be 19.6 µM; with SW-620 colon it was 16.1 µM; in the assay with HCT-15 colon it was 24.9 µM; with MOLT-4 leukemia, 11.4 µM; with LOX IMVI melanoma, 11.2 µM.
In the case of `O=C(N/N=C1\C(=O)N(c2nccs2)C(=O)C(=O)C1c1nc2ccccc2s1)c1ccccc1O` (stereo unspecified), the TGI with HT29 colon is > 100 µM; with SW-620 colon, > 100 µM; in the assay with HCT-15 colon it was > 100 µM; in the assay with NCI-H522 lung, 96.9 µM; with LOX IMVI melanoma it was > 100 µM.
As to `O=C(CC(=O)c1cccc2ccccc12)C(=O)NC1C2CC3CC(C2)CC1C3` (stereo unspecified), the TGI in the assay with HT29 colon, in the assay on SW-620 colon, in the assay on HCT-15 colon, in the assay on NCI-H522 lung, in the assay on MOLT-4 leukemia and in the assay with LOX IMVI melanoma was > 100 µM in each case.

Source of the values: PubChem BioAssay (NCI).
